Series [1] deals with PC-3 cells. Nature of the series: In vitro cytotoxicity, CCK-8 assay, PC-3 cells. The note with it: PC-3; androgen-insensitive human prostate cancer cell line; CCK-8; 24 h exposure; mean ± SD of three experiments. In kind it is cell-based, human. As to the method:
(§1) The synthesized target compounds 4–21 were evaluated for their in vitro cytotoxic activities against three human prostate cancer cell lines (PC-3, LNCaP, and DU145) and compared with their effects on the human prostate epithelial cell line WPMY-1 by CCK-8 assay.
(§2) PC-3 and WPMY-1 cells were cultured in Dulbecco’s modified Eagle’s medium (DMEM, Invitrogen, Carlsbad, CA, USA) supplemented with 10% fetal bovine serum (FBS, Hyclone, Logan, UT, USA), 100 U/mL penicillin, and 0.1 mg/mL streptomycin (Invitrogen). DU145 cells were cultured in RPMI1640 media supplemented with 10% fetal bovine serum (FBS, Hyclone), 100 U/mL penicillin, and 0.1 mg/mL streptomycin (Invitrogen). LNCaP cells were cultured in F12 media supplemented with 10% fetal bovine serum (FBS, Hyclone), 100 U/mL penicillin, and 0.1 mg/mL streptomycin (Invitrogen). The cells were incubated at 37 °C in a humidified atmosphere with 5% CO2.
(§3) Cell proliferation was measured with the Cell Counting Kit-8 (CCK-8) assay kit (Dojindo Corp., Kumamoto, Japan). Cells were harvested during their logarithmic growth phase, seeded in 96-well plates at a density of 1 × 10^5 cells/mL, and cultured at 37 °C in a humidified incubator (5% CO2) for 24 h, followed by exposure to various concentrations of compounds tested for 24 h. Subsequently, 10 μL of CCK-8 (Dojindo) was added to each well, and the cells were then incubated for an additional 1 h at 37 °C to convert WST-8 into formazan. Cell growth inhibition was determined by measuring the absorbance (Abs) at λ = 450 nm using a microplate reader. Three independent experiments were performed. Cell growth inhibition was calculated according to the following equation: Growth inhibition = (1 − OD of treated cells / OD of control cells) × 100%
(§4) The half maximal inhibitory concentrations (IC50) were obtained from a linear regression analysis of the concentration-response curves plotted for each tested compound.
(Tetrazolium dyes change colour on reduction, which living cells bring about.)

In series [2] the test system is LNCaP cells. Nature of the series: In vitro cytotoxicity, CCK-8 assay, LNCaP cells. The class given is cell-based, human. The note with it: for IC50: LNCaP, androgen-sensitive human prostate cancer cell line, CCK-8, 24 h exposure, mean ± SD of three experiments. As to the method: as §1, §2, §3, §4
For series [3], the system named is DU145 cells. Nature of the series: In vitro cytotoxicity, CCK-8 assay, DU145 cells. Particulars: Homo sapiens, DU-145, 24 h, androgen-insensitive human prostate cancer cell line; CCK-8; 24 h exposure; mean ± SD of three experiments. The class given is cell-based, human. How it is done:
as §1, §2, §3, §4

For a further series, the system named is WPMY-1 cells. Put plainly: In vitro cytotoxicity, CCK-8 assay, WPMY-1 prostate epithelial cells. In kind it is cell-based, human. Particulars: WPMY-1; human prostate epithelial cell line; CCK-8; 24 h exposure; mean ± SD of three experiments. As to the method:
as §1, §2, §3, §4

Series [4] has as its system PC-3 cells. Also on record: method as in PMID 24910245. Particulars: reference compound, SD not given; cited from earlier work.
Series [5] concerns LNCaP cells. Also on record: method as in PMID 24910245. The note with it: reference compound, SD not given; cited from earlier work.
The test system of series [6] is DU145 cells. Also on record: method as in PMID 24910245. Particulars: reference compound, SD not given; cited from earlier work.

Like-named read-outs stand apart in the source and are kept apart here.

For orientation: IC50 means the concentration that inhibits the measured activity by half. For orientation: melting point means the temperature of the solid-liquid transition. `O=C1c2ccccc2S(=O)(=O)N1Cc1ccc(CCN2CCN(c3ccc(Br)cc3)CC2)cc1` [Compound 18, Saccharin N-(1-(4-(methyl)phenethyl)-4-(4-bromophenyl)piperazine)] yielded a melting point of 105 to 106 °C. This molecule had an IC50 with PC-3 cells [1] of 2.25 ± 0.07 µM. In addition, the IC50 in the series with LNCaP cells [2] is > 50 µM. Moreover, half-maximal inhibition in the series with DU145 cells [3] (IC50) was put at 9.05 ± 0.23 µM. The IC50 in the series on WPMY-1 cells is > 50 µM.
Consider `N#Cc1ccccc1N1CCN(CCc2ccc(CN3C(=O)c4ccccc4S3(=O)=O)cc2)CC1` [Compound 19, Saccharin N-(2-(4-(4-(methyl)phenethyl)piperazin-1-yl)benzonitrile)], for which the melting point was in the range of 146 to 147 °C. Further, in the series with PC-3 cells [1], the IC50 was > 50 µM. In addition, the IC50 in the series on LNCaP cells [2] was 5.14 ± 0.16 µM. The “selective activity for LNCaP cells over other cancer cells” value in the series with LNCaP cells [2] (in words, from IC50 comparison) was “excellent selective activity”. Besides, in the series on DU145 cells [3], the IC50 was > 50 µM. The molecule further had an IC50 in the series with WPMY-1 cells of 39.15 ± 0.17 µM.
For `N#Cc1ccc(N2CCN(CCc3ccc(CN4C(=O)c5ccccc5S4(=O)=O)cc3)CC2)cc1` [Compound 20, Saccharin N-(4-(4-(4-(methyl)phenethyl)piperazin-1-yl)benzonitrile)], the melting point fell in the range of 179 to 180 °C. Moreover, in the series on PC-3 cells [1], the IC50 came to 2.66 ± 0.04 µM. In the series with LNCaP cells [2], this molecule registered an IC50 of 3.43 ± 0.1 µM. In addition, the IC50 with DU145 cells [3] is > 50 µM. The same molecule registered an IC50 with WPMY-1 cells of 46.3 ± 0.51 µM.
With `CC(C)(C)NC(=O)[C@H]1CC[C@H]2[C@@H]3CC[C@H]4NC(=O)C=C[C@]4(C)[C@H]3CC[C@]12C` [Finasteride], the IC50 is 17.8 µM with PC-3 cells [4], 14.5 µM with LNCaP cells [5] and 13.5 µM in the series with DU145 cells [6].

(Values after article PMC6150201, “Synthesis and Antitumor Activity of Novel Arylpiperazine Derivatives Containing the Saccharin Moiety” (Molecules : A Journal of Synthetic Chemistry and Natural …, 2017).)
